From patent US8466191B2, “Pyrroline derivatives against cell releasing tumor necrosis factor, preparation methods and uses thereof” (priority 2006, dated 2013)

System: release of TNFα in peripheral blood mononuclear cells (PBMCs) stimulated by lipopolysaccharide (LPS)
Assay: Inhibition of the release of TNFα in peripheral blood mononuclear cells (PBMCs) stimulated by lipopolysaccharide (LPS), ELISA
Assay type: cell-based, human
Conditions: 3 μM compound, PBMCs 1×10^6 cells/mL, 1 hour preincubation, LPS 0.1 μg/mL, 20 hours incubation, TNFα in supernatant by ELISA
Protocol: Pharmacological Research: Effects on the release of TNFα in peripheral blood mononuclear cells (PBMCs) stimulated by lipopolysaccharide (LPS) by compounds of the invention
Release of cytokine TNFα by PBMCs in the peripheral blood stimulated by lipid polysaccharide (LPS) was studied in vitro.
PBMCs collected from blood of at least three volunteers were pretreated with heparin by a gradient separation method, and washed three times with a 1640 culture medium (10% calf serum, 2 mM L-glutamine, […] mercaptoethanol, 50 μg/mL streptomycin, and 50 U/mL penicillin). The obtained PBMCs were then placed into a 24-well cell culture plate and the concentration was adjusted to 1×10^6 cells/mL with 1640 culture medium. The compounds to be tested were dissolved in dimethylsulfoxide to obtain a solution having a required concentration. The solution was added to the above-mentioned cell culture medium and cultured in an incubator (5% CO2, 90% humidity) for 1 hour. Then, LPS (Sigma) was added until the concentration reached 0.1 μg/mL (except for the control).
After 20 hours incubation, the content of TNFα in the supernatant of the PBMC culture medium was assayed using an ELISA kit (America Genzyme Co) by a standard method. The TNFα inhibition rate was calculated using values measured in the control well (not treated) and the test wells (treated with the compound to be tested). The concentration of compounds giving a 50% TNFα inhibition (IC50 value) was calculated using nonlinear regression analysis. Each concentration was determined twice and an average value was reported.

Structure (SMILES)	Inhibition Rate (%)	inhibition at 3 µM (Homo sapiens, PBMC, read-out: Inhibition Rate (%)) [%]
CCOc1ccc(C(CC(=O)OC)N2C(=O)c3csc(N)c3C2=O)cc1OC (centres unmarked) [Example 26, methyl 3-(3-Methoxy-4-ethoxy-phenyl)-3-(1-amino-4,6-dioxo-4H-thiophene[3,4-c]pyrrole-5(6H)-yl)propionate]	93.6	–
COC(=O)CCCN1C(=O)c2cscc2C1=O [Example 16, methyl 4-(4,6-Dioxo-4H-thiophene[3,4-c]pyrrole-5(6H)-yl)butyrate]	38.4	–
O=C1CCC(N2C(=O)c3ccccc3C2=O)C(=O)N1 (centres unmarked) [Thalidomide, reference compound]	–	22
COC(=O)CC(c1ccc(OC)c(OC)c1)N1C(=O)c2csc(N)c2C1=O (centres unmarked) [Example 23, methyl 3-(3,4-Dimethoxy-phenyl)-3-(1-amino-4,6-dioxo-4H-thiophene[3,4-c]pyrrole-5(6H)-yl)propionate]	95.4	–
COc1cc(C(CC#N)N2C(=O)c3csc(N)c3C2=O)ccc1OCc1ccccc1 (centres unmarked) [Example 40, 3-(3-Methoxy-4-benzyloxyphenyl)-3-(1-amino-4,6-dioxo-4H-thiophene[3,4-c]pyrrole-5(6H)-yl)propionitrile]	83.6	–
COC(=O)[C@H](c1ccccc1)N1C(=O)c2csc(N)c2C1=O [Example 29, L-methyl 2-(1-amino-4,6-dioxo-4H-thiophene[3,4-c]pyrrole-5(6H)-yl)-2-phenylacetate]	87.6	–
COc1ccc(C(CC#N)N2C(=O)c3csc(N)c3C2=O)cc1OC1CCCC1 (centres unmarked) [Example 42, 3-(3-Cyclopentyloxy-4-methoxy-phenyl)-3-(1-amino-4,6-dioxo-4H-thiophene[3,4-c]pyrrole-5(6H)-yl)propionitrile]	94.8	–
COC(=O)[C@@H](c1ccccc1)N1C(=O)c2cscc2C1=O [Example 18, D-methyl 2-(4,6-dioxo-4H-thiophene[3,4-c]pyrrole-5(6H)-yl)-2-phenylacetate]	84.1	–
CCOc1ccc(C(CC(=O)NO)N2C(=O)c3cscc3C2=O)cc1OC (centres unmarked) [Example 59, 3-(3-Methoxy-4-ethoxy-phenyl)-3-(4,6-dioxo-4H-thiophene[3,4-c]pyrrole-5(6H)-yl)-N-hydroxy propionamide]	80	–
CCOc1cc(C(CC#N)N2C(=O)c3csc(N)c3C2=O)ccc1OC (centres unmarked) [Example 41, 3-(3-Ethoxy-4-methoxy-phenyl)-3-(1-amino-4,6-dioxo-4H-thiophene[3,4-c]pyrrole-5(6H)-yl)propionitrile]	91.2	–
COC(=O)CCN1C(=O)c2cscc2C1=O [Example 15, methyl 3-(4,6-Dioxo-4H-thiophene[3,4-c]pyrrole-5(6H)-yl)propionate]	40.9	–
COC(=O)CC(c1ccc(OC)c(OC2CCCC2)c1)N1C(=O)c2csc(NC(C)=O)c2C1=O (centres unmarked) [Example 31, methyl 3-(3-Cyclopentyloxy-4-methoxy-phenyl)-3-(1-acetylamino-4,6-dioxo-4H-thiophene[3,4-c]pyrrole-5(6H)-yl)propionate]	93.6	–
COc1cc(C(CCN(C)C)N2C(=O)c3cscc3C2=O)ccc1OCc1ccccc1 (centres unmarked) [Example 54, 5-(1-(3-Methoxy-4-benzyloxyphenyl)-3-dimethylamino-propyl)-5H-thiophene[3,4-c]pyrrole-4,6-dione]	41.4	–
COc1ccc(C(CC#N)N2C(=O)c3csc(N)c3C2=O)cc1OC (centres unmarked) [Example 39, 3-(3,4-dimethoxy-phenyl)-3-(1-amino-4,6-dioxo-4H-thiophene[3,4-c]pyrrole-5(6H)-yl)propionitrile]	93.4	–
CCOc1ccc(C(CC#N)N2C(=O)c3csc(N)c3C2=O)cc1OC (centres unmarked) [Example 38, 3-(3-Methoxy-4-ethoxy-phenyl)-3-(1-amino-4,6-dioxo-4H-thiophene[3,4-c]pyrrole-5(6H)-yl)propionitrile]	94.9	–
COC(=O)[C@H](c1ccccc1)N1C(=O)c2cscc2C1=O [Example 17, L-methyl 2-(4,6-dioxo-4H-thiophene[3,4-c]pyrrole-5(6H)-yl)-2-phenylacetate]	83.5	–
CCOc1ccc(C(CC(=O)O)N2C(=O)c3cscc3C2=O)cc1OC (centres unmarked) [Example 58, 3-(3-Methoxy-4-ethoxy-phenyl)-3-(4,6-dioxo-4H-thiophene[3,4-c]pyrrole-5(6H)-yl)propionic acid]	20.7	–
COC(=O)[C@@H](c1ccccc1)N1C(=O)c2csc(N)c2C1=O [Example 30, D-methyl 2-(1-amino-4,6-dioxo-4H-thiophene[3,4-c]pyrrole-5(6H)-yl)-2-phenylacetate]	91.4	–
COC(=O)CC(c1ccc(OC)c(OC)c1)N1C(=O)c2cscc2C1=O (centres unmarked) [Example 1, methyl 3-(3,4-dimethoxy-phenyl)-3-(4,6-dioxo-4H-thiophene[3,4-c]pyrrole-5(6H)-yl)propionate]	87.6	–
CCN(CC)CCC(c1ccc(OCc2ccccc2)c(OC)c1)N1C(=O)c2cscc2C1=O (centres unmarked) [Example 55, 5-(1-(3-Methoxy-4-benzyloxyphenyl)-3-diethylamino-propyl)-5H-thiophene[3,4-c]pyrrole-4,6-dione]	50.2	–
